Assays:
Type in all cases: cell-based
TGR4 [1] = target: T1, TGR4 (Homo sapiens, UniProt Q9H1C0); test: Intracellular calcium ion mobilization activity in TGR4-expressing CHO cells (FLIPR); details: for EC50: TGR4-expressing CHO cells, 100% = reaction when 2 × 10^−6 M farnesyl 2-phosphate was added, read-out: Intracellular Ca^2+ mobilization activity (EC50); for concentration dependency of intracellular calcium ion mobilization activity: CHO-TGR4 (FIG. 16)
T1 construct: expressed in transfected cells
Method: Using TGR4 expression vector prepared in EXAMPLE 1, according to the publicly known method, the CHO cells stably expressing TGR4, which is designated CHO-TGR4, were prepared. CHO-TGR4 or CHO-mock cells, in which no receptor gene is introduced, was seeded to 96-well plate of Black plate, Clear bottom available from Costar at the concentration of 30,000 cells/well. After cultivation at 37° C. in the presence of 5% CO2 for overnight, the cells were used for assay. For washing buffer, Hank's balanced salt solution (HBSS, GibcoBRL) supplemented with 20 mM HEPES (pH7.4) and 2.5 mM probeneside (Sigma) was prepared. For sample buffer, the washing buffer supplemented with 0.1% bovine serum albumin (BSA, Sigma) was used. The washing buffer supplemented with 1% FBS, 4 μM Fluo 3-AM (Wako Pure Chemicals) and 0.04% Pluronic acid (Molecular Probes) was used as a dye loading solution. After discarding the medium, adding the dye loading solution and incubating the cells at 37° C. for 1 hour, using the plate washer, the cells were washed with the washing buffer. The cells were set to Fluorometric Imaging Plate Reader (FLIPR, Molecular Device) and the change of intracellular calcium ion concentration during three minutes after addition of sample was measured. FPP and LPA were added to sample to make a final concentration 2.5 μM each.
As well as the method described in EXAMPLE 7, using TGR4-expressing CHO cells and mock CHO cells, a study on concentration dependency of intracellular calcium ion mobilization activity by substances associated with various phospholipids compounds was made. For substances associated with various phospholipids compounds, geranylgeranyl 2-phosphate, farnesyl 2-phosphate, geranyl 2-phosphate, lysophosphatidic acid, sphingosine 1-phosphate, nordeoxycholic acid, deoxycholic acid, geranylgeranyol, farnesol were used.

TGR4 [2] = target: T1, TGR4; test: CRE-luciferase reporter gene assay in CHO cells transiently expressing TGR4; details: 4 hours, TGR4 and Gi co-transfected with pCRE-Luc (FIG. 4)
Method: The expression vector plasmid pAK-TGR4 or pAK-Gi, which was prepared by inserting TGR4 cDNA or suppressive G protein a subunit Gi cDNA into pAKKO-111H, the expression plasmid vector for animal cells (the same plasmid vector as pAKKO-111H described in Biochem. Biophys. Acta by Hinuma, S. et al., Vol. 1219, pp. 251-259, 1994), and original pAKKO-111H, in which no specific gene was inserted, were transfected into the CHO cells by the following method.
Using these vectors, Escherichia coli JM109 was transformed. A colony obtained was isolated and cultured for preparation of plasmid with QIAGEN Plasmid Maxi Kit (Qiagen). Further, plasmid of pCRE-Luc (CLONTECH), in which luciferase gene is ligated as a reporter downstream cAMP response element (CRE), was prepared in a similar method. The CHO-mock cells, wherein the CHO (dhfr^−0 cells were transformed with pAKKO-111H, were seeded in 96-well black plate (Costar) at 40,000 cells/well and 100 μl of culture volume, and were cultured for overnight. For a culture on the plate, DMEM (Dulbecco's modified Eagle's medium, CibcoBRL) supplemented with nothing but 10% fetal bovine serum was used. In order to detect an increase of expression level of the reporter gene more clearly, the pAK-Gi was co-transfected with the pAK-TGR4. Each plasmid was added to 240 μl of Opti-MEM-I (GibcoBRL) at the ratio of 7:3:1 of pAK-TGR4:pAK-Gi:reporter plasmid pCRE-Luc. This solution was mixed with the same volume of solution wherein 10 μl of Lipofectamine 2000 was added to 240 μl of Opti-MEM-I to form a complex of liposome and plasmid according to the method described in the manual attached to Lipofectamine 2000. To culture of CHO-mock cells, 25 μl/well of the above-mentioned solution was added. After 4 hours at 37° C., a culture broth was replaced to an assay buffer (DMEM supplemented with 0.1% bovine serum albumin) to be serum-free for introduction of the plasmid. Then, these cells were cultured at 37° C. under the condition of 5% CO2 for overnight.
To the CHO-mock cells transfected as described above, geranylgeranyl 2-phosphate (GGPP, Sigma), farnesyl 2-phosphate (FPP, Sigma) and lysophosphatidic acid (LPA, Sigma) were added to the concentration of 1 μM, 0.1 μM, and […], respectively, and incubated at 37° C. under the condition of 5% CO2 for 4 hours. After discarding the supernatant, 50 μl of Picagene LT2.0, the substrate for assaying luciferase activity were added, and luminescence level of luciferase was measured using plate reader (ARVO sx multilabel counter, Wallac).

TGR4 [3] = target: T1, TGR4; test: cAMP production in TGR4-expressing CHO cells; details: for cAMP production increasing activity dependent on concentration: CHO-TGR4 (FIG. 18); for level of cAMP production: final concentration 2 μM, 30 minutes, CHO-TGR4 versus CHO-mock (FIGS. 7 and 8)
Method: The CHO-TGR4 prepared in EXAMPLE 2, or the CHO-mock cells, in which no receptor gene is introduced, were seeded on 96-well plate at the concentration of 25,000 cells/well. After cultivation at 37° C. in the presence of 5% CO2 for overnight, the cells were used for assay. For the sample buffer, HBSS supplemented with 0.1% BSA and 0.2 mM IBMX (Sigma) was used. The cells were washed twice with the sample buffer and pre-incubated at 37° C. for 30 minutes. Thereafter, the cells were also washed twice and incubated at 37° C. for 30 minutes after adding of sample. Farnesyl 2-phosphate or lysophophatidic acid was added to the sample to make a finalconcentration 2 μM. After incubation with the sample, a level of cAMP production was measured using cAMP Screen System (ABI).
As well as the method described in EXAMPLE 8, using TGR4-expressing CHO cells and mock CHO cells, a study on concentration dependency of cAMP production increasing activity by substances associated with various phospholipids compounds was made. […] For abbreviation of compounds, see EXAMPLE 9.

TGR4 [4] = target: T1, TGR4; test: Activation of p44/42 MAP kinase in human TGR4-expressing CHO cells; details: 0.1 μM; TGR4-expressing CHO cells versus mock cells
Method: Human TGR4-expressing CHO cells and mock cells were seeded on 6-well plate at the concentration of 3×10^5 cells/well and cultured for overnight. For removal of serum, the medium was replaced with α-MEM including no nucleic acid supplemented with 0.1% BSA, and the cells were further incubated for overnight. Until just before assay, preincubation using the same medium for 2 hours was carried out. By adding 0.1 μM farnesyl 2-phosphate to the medium, the treatment was started. With respect to each given time, the medium was removed by aspiration and the reaction was terminated by addition of sumple buffer for SDS-PAGE. In accordance with conventional manner, SDS-PAGE was done and then the proteins were transferred to nitrocellulose membrane. Following the method described in the manual of Phospho Plus p44/42 MAPK (Thr202/Tyr204) Antibody Kit (Cell Signaling), detection of p44/42 MAP kinase was performed. […] Thus it became clear that the enzyme was activated.

TGR4-GFP fusion protein = target: T2, TGR4-GFP fusion protein (Homo sapiens, UniProt Q9H1C0); test: Intracellular translocation of TGR4-GFP fusion protein expressed in CHO cells; details: 10^−6 M, thirty minutes after addition
T2 construct: expressed in transfected cells; host or cells: CHO-mock cells (CHO dhfr- transformed with pAKKO-111H), transient, Lipofectamine 2000
Description: Expression plasmid wherein fusion protein that cDNA encoding Green Fluorescent protein (GFP) isolated from Aequorea coerulescens was ligated to the C-terminus of TGR4 by adjusting a translation frame, was constructed. As GFP cDNA, a fragment excised from GFP-expressing vector pQBI25 (Takara Shuzo) was used. The stop codon of TGR4 was modified to the recognition sequence of restriction enzyme NheI by the PCR method. GFP fragment was ligated to the terminus, and the obtained fragment was inserted into the expression vector pAKKO-111H. The thus obtained plasmid, which is an expression vector for fusion protein of TGR4 and GFP (hereinafter referred to as TGR4-GFP) was transfected to CHO-mock cells by the following method. The CHO-mock cells were suspended in growth medium (DMEM (Dulbecco's Modified Eagle Medium) (GIBCO BRL) supplemented with 10% fetal bovine serum (GIBCO BRL)), seeded on Lab-Tek II coverglass chamber (Nalgen Nunc), which has 4 chambers, at the concentration of 0.6×10^5 cells/chamber. After cultivation at 37° C. in the presence of 5% CO2 for overnight, transfection was carried out. For transfection, Lipofectamine™ 2000 Reagent (GIBCO BRL) was used. Firstly, 2 μl of Lipofectamine™ 2000 Reagent and 50 μl of OPTI-MEM-I (GIBCO BRL) were admixed and stood for 20 minutes at room temperature to form a complex of DNA with lipofectamine. […]

Row | Molecule | EC50 (TGR4 [1]) | other results
1 | CC(C)=CCOP(=O)(O)OP(=O)(O)O [Dimethylaryl 2-phosphate] | > 2500 nM | –
2 | C[C@H](CC(=O)O)[C@H]1CC[C@H]2[C@@H]3CC[C@@H]4C[C@H](O)CC[C@]4(C)[C@H]3C[C@H](O)[C@]12C [Nordeoxycholic acid] | > 2500 nM | –
3 | C[C@H](CCC(=O)O)[C@H]1CC[C@H]2[C@@H]3CC[C@@H]4C[C@H](O)CC[C@]4(C)[C@H]3C[C@H](O)[C@]12C [Deoxycholic acid] | > 2500 nM | –
4 | CC(C)=CCC/C(C)=C/CC/C(C)=C/CC/C(C)=C/CO [Geranylgeranyol] | > 2500 nM | –
5 | CC(=O)CC/C=C(\C)CCC=C(C)C [Geranyl acetone] | > 2500 nM | –
6 | CC(C)=CCC/C(C)=C/CC/C(C)=C/CC/C(C)=C/COP(=O)(O)OP(=O)(O)O [Geranylgeranyl 2-phosphate, geranylgeranyl 2-phosphate] | 19 nM | luciferase activity (TGR4 [2]; 0.1 μM): increase of luciferase activity was detected; luciferase activity (TGR4 [2]; 1 μM): increase of luciferase activity was detected; cAMP production increasing activity dependent on concentration (TGR4 [3]): activity dependent on concentration was perceived; concentration dependency of intracellular calcium ion mobilization activity (TGR4 [1]): activity dependent on concentration was perceived
7 | CC(C)=CCC/C(C)=C/CC/C(C)=C/COP(=O)(O)OP(=O)(O)O [Farnesyl 2-phosphate, farnesyl 2-phosphate] | 29 nM | luciferase activity (TGR4 [2]; 0.1 μM): increase of luciferase activity was detected; luciferase activity (TGR4 [2]; 1 μM): increase of luciferase activity was detected; phosphorylation of p44/42 MAP kinase (TGR4 [4]): phosphorylation of MAP kinase specific to human TGR-expressing CHO cells; translocation of TGR4-GFP fluorescence from cell membrane (TGR4-GFP fusion protein): translocated to cytoplasm; cAMP production increasing activity dependent on concentration (TGR4 [3]): activity dependent on concentration was perceived; level of cAMP production (TGR4 [3]): increased in the manner specific to CHO-TGR4; concentration dependency of intracellular calcium ion mobilization activity (TGR4 [1]): activity dependent on concentration was perceived; intracellular calcium ion mobilization activity (TGR4 [1]; final concentration 2.5 μM, CHO-TGR4 versus CHO-mock (FIGS. 5 and 6)): increased in the manner specific to CHO-TGR4
8 | C[C@H](CCC(=O)O)[C@H]1CC[C@H]2[C@@H]3CC[C@@H]4C[C@H](O)CC[C@]4(C)[C@H]3CC[C@]12C [Lithocolic acid] | > 2500 nM | –
9 | CC(C)=CCC/C(C)=C/CO [Geranyol] | > 2500 nM | –
10 | lysophosphatidic acid | – | luciferase activity (TGR4 [2]; 1 μM): increase of luciferase activity was detected; level of cAMP production (TGR4 [3]): increased in the manner specific to CHO-TGR4

Second part, led by results:

Row | EC50 (TGR4 [1]) | Molecule | other results
11 | > 2500 nM | CC(C)=CCC/C(C)=C/COP(=O)(O)OP(=O)(O)O [Geranyl 2-phosphate] | –
12 | > 2500 nM | CC(C)=CCC/C(C)=C/CCl [Geranylchloride] | –
13 | > 2500 nM | CC(C)=CCC/C(C)=C/CCC(=O)O [Geranyl acetic acid] | –
14 | > 2500 nM | CC(C)=CCCC(C)=CCCC(C)=CCO [Farnesol] | –
15 | 1500 nM | CCCCCCCCCCCCC/C=C/[C@@H](O)[C@@H](N)COP(=O)(O)O [Sphingosine 1-phosphate] | –
16 | > 2500 nM | CC(C)=CCC/C(C)=C/CN [Geranylamine] | –

— patent US20040248208A1, “Screening method” (priority 2001, published 2004)
